The values below come from US9409866B2, “Pyridine-2-amides useful as CB2 agonists” (Hoffmann-La Roche Inc., priority 2012, dated 2016).

Where two headings read alike, the source gives them in different places. A value given as a limit tells only on which side of the number the result lay.

For assay [1], the target named is human CB2 receptors (Homo sapiens (Human), UniProt P34972). The assay can be described thus: functional cAMP assay, CHO cells expressing human CB2. The format is cell-based. A digest of the protocol: (§1)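 Agonist EC50 values came from cAMP levels in CHO cells carrying human CB1 or CB2, after 30 min of compound treatment at 30 °C in the presence of 1 mM IBMX. Detection used a time-resolved FRET cAMP kit read against a cAMP standard curve.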
human CB2 receptors, sequence (P34972 whole entry): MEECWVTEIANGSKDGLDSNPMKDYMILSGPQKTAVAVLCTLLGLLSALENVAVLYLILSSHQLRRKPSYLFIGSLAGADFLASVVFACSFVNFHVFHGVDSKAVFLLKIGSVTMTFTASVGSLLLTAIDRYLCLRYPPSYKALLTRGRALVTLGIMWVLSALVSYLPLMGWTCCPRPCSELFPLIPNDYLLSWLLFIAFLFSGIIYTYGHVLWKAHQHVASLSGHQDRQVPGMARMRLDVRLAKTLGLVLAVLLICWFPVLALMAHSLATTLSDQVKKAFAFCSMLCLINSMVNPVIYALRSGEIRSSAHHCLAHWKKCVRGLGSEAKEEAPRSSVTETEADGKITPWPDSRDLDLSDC
A general note: Changes in cAMP serve as a functional read-out for many G protein-coupled receptors.

Assay [2] addresses human CB1 receptors (Homo sapiens (Human), UniProt P21554). The assay can be described thus: functional cAMP assay, CHO cells expressing human CB1. It counts as cell-based. A digest of the protocol: as §1
The mark [3] stands for this setting: functional cAMP assay, CHO cells expressing human CB1; read-out: Human CB1 EC50.

human CB1 receptors, sequence (P21554 whole entry): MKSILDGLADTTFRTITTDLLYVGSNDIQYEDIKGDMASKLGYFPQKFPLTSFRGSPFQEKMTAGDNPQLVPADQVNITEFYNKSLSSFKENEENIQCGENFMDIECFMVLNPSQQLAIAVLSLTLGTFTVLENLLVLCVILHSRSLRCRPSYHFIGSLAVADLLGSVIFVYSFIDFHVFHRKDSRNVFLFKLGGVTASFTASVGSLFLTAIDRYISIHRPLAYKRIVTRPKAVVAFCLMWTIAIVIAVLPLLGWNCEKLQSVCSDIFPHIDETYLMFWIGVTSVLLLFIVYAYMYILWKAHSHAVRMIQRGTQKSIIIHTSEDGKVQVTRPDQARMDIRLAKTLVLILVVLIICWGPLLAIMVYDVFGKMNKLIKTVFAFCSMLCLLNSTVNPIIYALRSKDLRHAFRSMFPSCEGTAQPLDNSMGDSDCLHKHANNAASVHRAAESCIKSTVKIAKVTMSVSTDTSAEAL

As to `Cc1nnc(C(NC(=O)c2cc(O[C@@H](C)C(F)(F)F)c(C3(F)COC3)cn2)C(C)(C)C)o1` (stereo partly drawn) [Example 175, N-[2,2-dimethyl-1-(5-methyl-1,3,4-oxadiazol-2-yl)propyl]-5-(3-fluorooxetan-3-yl)-4-[(2S)-1,1,1-trifluoropropan-2-yl]oxypyridine-2-carboxamide], the EC50 in assay [1] (read-out: Human CB2 EC50) was 0.0955 µM; in assay [2] (setting [3]), above 10 µM.

Regarding `CC(C)(C)C(NC(=O)c1cc(OCC(F)(F)F)c(N2CC(F)(F)C2)cn1)C(N)=O` (single isomer, unassigned) [Example 262, N-[1-amino-3,3-dimethyl-1-oxobutan-2-yl]-5-(3,3-difluoroazetidin-1-yl)-4-(2,2,2-trifluoroethoxy)pyridine-2-carboxamide], the concentration for a half-maximal effect (EC50) is 0.261 µM in assay [1] (Human CB2 EC50 (uM)) and above 10 µM in assay [2] (Human CB1 EC50 (uM), functional cAMP assay, CHO cells expressing human CB1).

`CCN(C(=O)c1cc(OCC2CC2)c(C2CC2)cn1)C(C)(C)C` [Example 106, 5-Cyclopropyl-4-cyclopropylmethoxy-pyridine-2-carboxylic acid tert-butyl-ethyl-amide]: the EC50 was 0.0095 µM in assay [1] (read-out: Human CB2 EC50) and above 10 µM in assay [2] (setting [3]).

Turning to `Cc1nc(C(C)(CS(C)(=O)=O)NC(=O)c2cc(OC(C)CF)c(C3CC3)cn2)no1` (single isomer, unassigned) [Example 296, 5-cyclopropyl-4-(1-fluoropropan-2-yloxy)-N-(2-(5-methyl-1,2,4-oxadiazol-3-yl)-1-(methylsulfonyl)propan-2-yl)picolinamide], the 50% effective concentration (EC50) is 0.0422 µM in assay [1] (Human CB2 EC50 (uM)) and above 10 µM in assay [2] (read-out: Human CB1 EC50; functional cAMP assay, CHO cells expressing human CB1).

For the molecule `CC(C)C[C@@H](CO)NC(=O)c1cc(OCC2CC2)c(Cl)cn1` [Example 7, 5-Chloro-4-cyclopropylmethoxy-pyridine-2-carboxylic acid ((S)-1-hydroxymethyl-3-methyl-butyl)-amide], the EC50 is 0.0523 µM in assay [1] (read-out: Human CB2 EC50) and above 10 µM in assay [2] (setting [3]).

As to `Cc1csc(C2(NC(=O)c3cc(OCC(F)(F)F)c(C4CC4)cn3)CCOCC2)n1` [Example 152, 5-cyclopropyl-N-[4-(4-methyl-1,3-thiazol-2-yl)oxan-4-yl]-4-(2,2,2-trifluoroethoxy)pyridine-2-carboxamide], the half-maximal effective concentration (EC50) is 0.185 µM in assay [1] (read-out: Human CB2 EC50) and above 10 µM in assay [2] (setting [3]).

For the molecule `CNC(=O)C(NC(=O)c1cc(OCC(F)(F)F)c(C2CC2)cn1)C(C)(C)F` (stereo not shown) [Example 237, 5-cyclopropyl-N-[3-fluoro-3-methyl-1-(methylamino)-1-oxobutan-2-yl]-4-(2,2,2-trifluoroethoxy)pyridine-2-carboxamide], the figures for the concentration for a half-maximal effect (EC50) in assay [1] (read-out: Human CB2 EC50) and in assay [2] (setting [3]) were 0.017 µM and above 10 µM, respectively.

Take `Cc1nc(C(C)(NC(=O)c2cc(OCC(F)(F)F)c(N3CC(F)(F)C3)cn2)C2CC2)no1` (stereo not shown) [Example 78, 5-(3,3-Difluoro-azetidin-1-yl)-4-(2,2,2-trifluoro-ethoxy)-pyridine-2-carboxylic acid [1-cyclopropyl-1-(5-methyl-[1,2,4]oxadiazol-3-yl)-ethyl]-amide]: the concentration for a half-maximal effect (EC50) in assay [1] (read-out: Human CB2 EC50) was 0.0061 µM; in assay [2] (setting [3]) it was above 10 µM.

With `CC(C)[C@H](CO)NC(=O)c1cc(OCC2CC2)c(Cl)cn1` [Example 11, 5-Chloro-4-cyclopropylmethoxy-pyridine-2-carboxylic acid ((R)-1-hydroxymethyl-2-methyl-propyl)-amide], the EC50 in assay [1] (read-out: Human CB2 EC50) is 0.0554 µM; in assay [2] (setting [3]) it was above 10 µM.

For `Cc1nc(C(C)(CS(C)(=O)=O)NC(=O)c2cc(O[C@@H](C)C(F)(F)F)c(N3CC(F)(F)C3)cn2)no1` (stereo partly drawn) [Example 102, 5-(3,3-Difluoro-azetidin-1-yl)-4-((S)-2,2,2-trifluoro-1-methyl-ethoxy)-pyridine-2-carboxylic acid [2-methanesulfonyl-1-methyl-1-(5-methyl-[1,2,4]oxadiazol-3-yl)-ethyl]-amide], the concentration giving a half-maximal response (EC50) in assay [1] (read-out: Human CB2 EC50) is 0.116 µM; in assay [2] (setting [3]), above 10 µM.

Turning to `NC(=O)[C@@H]1CC(F)(F)CN1C(=O)c1cc(OCC(F)(F)F)c(C2CC2)cn1` [Example 115, (2S)-1-[5-cyclopropyl-4-(2,2,2-trifluoroethoxy)pyridine-2-carbonyl]-4,4-difluoropyrrolidine-2-carboxamide], the EC50 in assay [1] (read-out: Human CB2 EC50) is 1.26 µM; in assay [2] (setting [3]), above 10 µM.

In general, EC50 refers to the concentration at which the effect is half-maximal.
